Reference: patent publication US9000029B2, “Proline sulfonamide derivatives as orexin receptor antagonists” (Actelion Pharmaceuticals Ltd., priority 2010, dated 2015)
Read-outs that look alike come from different tables or passages of the source.

Columns and labels:
human orexin-2 receptor = human orexin-2 receptor (Homo sapiens (Human), UniProt O43614); test: Intracellular calcium measurements (FLIPR), antagonism of orexin-A response; format: cell-based; details: CHO cells, 3 nM orexin-A, read-out: IC50 Ox2
Chain of human orexin-2 receptor (O43614 whole entry): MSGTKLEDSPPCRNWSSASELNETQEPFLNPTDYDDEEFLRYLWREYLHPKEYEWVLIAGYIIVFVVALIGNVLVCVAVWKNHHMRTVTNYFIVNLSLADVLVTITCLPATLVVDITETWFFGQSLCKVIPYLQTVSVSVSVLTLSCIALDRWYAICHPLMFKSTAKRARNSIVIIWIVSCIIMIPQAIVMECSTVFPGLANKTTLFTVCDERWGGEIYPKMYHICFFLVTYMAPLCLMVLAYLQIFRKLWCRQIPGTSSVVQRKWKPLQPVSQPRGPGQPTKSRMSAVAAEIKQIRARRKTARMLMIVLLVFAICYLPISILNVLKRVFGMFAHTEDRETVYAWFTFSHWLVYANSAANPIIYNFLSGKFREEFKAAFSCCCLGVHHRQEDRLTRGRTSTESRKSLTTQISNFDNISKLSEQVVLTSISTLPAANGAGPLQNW
Protocol: (§1) In Vitro Assay: Intracellular Calcium Measurements:
(§2) Chinese hamster ovary (CHO) cells expressing the human orexin-1 receptor and the human orexin-2 receptor, respectively, are grown in culture medium (Ham F-12 with L-Glutamine) containing 300 μg/ml G418, 100 U/ml penicillin, 100 μg/ml streptomycin and 10% heat inactivated fetal calf serum (FCS). The cells are seeded at 20'000 cells/well into 384-well black clear bottom sterile plates (Greiner). The seeded plates are incubated overnight at 37° C. in 5% CO2.
(§3) Human orexin-A as an agonist is prepared as 1 mM stock solution in MeOH: water (1:1), diluted in HBSS containing 0.1% bovine serum albumin (BSA), NaHCO3: 0.375 g/l and 20 mM HEPES for use in the assay at a final concentration of 3 nM.
(§4) Antagonists are prepared as 10 mM stock solution in DMSO, then diluted in 384-well plates using DMSO followed by a transfer of the dilutions into in HBSS containing 0.1% bovine serum albumin (BSA), NaHCO3: 0.375 g/l and 20 mM HEPES. On the day of the assay, 50 μl of staining buffer (HBSS containing 1% FCS, 20 mM HEPES, NaHCO3: 0.375 g/l, 5 mM probenecid (Sigma) and 3 μM of the fluorescent calcium indicator fluo-4 AM (1 mM stock solution in DMSO, containing 10% pluronic) is added to each well. The 384-well cell-plates are incubated for 50 min at 37° C. in 5% CO2 followed by equilibration at RT for 30 min before measurement.
(§5) Within the Fluorescent Imaging Plate Reader (FLIPR Tetra, Molecular Devices), antagonists are added to the plate in a volume of 10 μl/well, incubated for 10 min or (where explicitly indicated) for 120 min and finally 10 μl/well of agonist is added. Fluorescence is measured for each well at 1 second intervals, and the height of each fluorescence peak is compared to the height of the fluorescence peak induced by 3 nM orexin-A with vehicle in place of antagonist. The IC50 value (the concentration of compound needed to inhibit 50% of the agonistic response) is determined and may be normalized using the obtained IC50 value of a on-plate reference compound. Optimized conditions were achieved by adjustment of pipetting speed and cell splitting regime. The calculated IC50 values may fluctuate depending on the daily cellular assay performance. Fluctuations of this kind are known to those skilled in the art.

human orexin-1 receptor = human orexin-1 receptor (Homo sapiens (Human), UniProt O43613); test: as above; format: cell-based; details: CHO cells, 3 nM orexin-A, read-out: IC50 Ox1
Chain of human orexin-1 receptor (O43613 whole entry): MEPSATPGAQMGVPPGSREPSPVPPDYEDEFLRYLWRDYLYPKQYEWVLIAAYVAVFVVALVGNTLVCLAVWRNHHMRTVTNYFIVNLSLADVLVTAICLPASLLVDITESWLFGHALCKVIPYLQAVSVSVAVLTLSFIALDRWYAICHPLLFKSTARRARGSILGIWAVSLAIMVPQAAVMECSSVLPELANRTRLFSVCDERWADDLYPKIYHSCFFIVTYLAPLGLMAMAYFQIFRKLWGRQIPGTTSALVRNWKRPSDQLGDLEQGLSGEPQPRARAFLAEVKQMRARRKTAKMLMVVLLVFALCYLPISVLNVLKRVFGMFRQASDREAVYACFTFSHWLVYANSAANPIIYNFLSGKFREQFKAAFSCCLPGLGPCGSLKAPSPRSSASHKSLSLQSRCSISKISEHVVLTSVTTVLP
Protocol: as §1, §2, §3, §4, §5

[1] = compound incubation time of 120 min

IC50 (human orexin-2 receptor; compound incubation 10 min) | IC50 (human orexin-1 receptor; compound incubation 10 min) | IC50 (human orexin-2 receptor; [1]) | IC50 (human orexin-1 receptor; [1]) | SMILES
34 nM | 74 nM |  |  | COc1ccc(S(=O)(=O)N2CCC[C@H]2C(=O)Nc2ccc(F)c(Cl)c2)cc1 [Example 31, (S)-1-(4-Methoxy-benzenesulfonyl)-pyrrolidine-2-carboxylic acid (3-chloro-4-fluoro-phenyl)-amide]
38 nM | 134 nM |  |  | CCOc1cccc(NC(=O)[C@@H]2CCCN2S(=O)(=O)c2ccc(OC)cc2)c1 [Example 32, (S)-1-(4-Methoxy-benzenesulfonyl)-pyrrolidine-2-carboxylic acid (3-ethoxy-phenyl)-amide]
12 nM | 129 nM |  |  | COc1ccc(S(=O)(=O)N2CCC[C@H]2C(=O)Nc2ccc3c(c2)CCC3)cc1 [Example 33, (S)-1-(4-Methoxy-benzenesulfonyl)-pyrrolidine-2-carboxylic acid indan-5-ylamide]
8 nM | 54 nM |  |  | CCc1cccc(NC(=O)[C@@H]2CCCN2S(=O)(=O)c2ccc(OC)cc2)c1 [Example 34, (S)-1-(4-Methoxy-benzenesulfonyl)-pyrrolidine-2-carboxylic acid (3-ethyl-phenyl)-amide]
209 nM | 714 nM |  |  | COc1ccc(S(=O)(=O)N2CCC[C@H]2C(=O)Nc2cc(Cl)ccc2OC)cc1 [Example 35, (S)-1-(4-Methoxy-benzenesulfonyl)-pyrrolidine-2-carboxylic acid (5-chloro-2-methoxy-phenyl)-amide]
136 nM | 569 nM |  |  | COc1ccc(S(=O)(=O)N2CCC[C@H]2C(=O)Nc2ccc(F)c(F)c2)cc1 [Example 36, (S)-1-(4-Methoxy-benzenesulfonyl)-pyrrolidine-2-carboxylic acid (3,4-difluoro-phenyl)-amide]
28 nM | 70 nM |  |  | COc1ccc(S(=O)(=O)N2CCC[C@H]2C(=O)Nc2ccc(F)c(C)c2)cc1 [Example 37, (S)-1-(4-Methoxy-benzenesulfonyl)-pyrrolidine-2-carboxylic acid (4-fluoro-3-methyl-phenyl)-amide]
26 nM | 304 nM |  |  | COc1ccc(S(=O)(=O)N2CCC[C@H]2C(=O)Nc2cc(C)ccc2F)cc1 [Example 38, (S)-1-(4-Methoxy-benzenesulfonyl)-pyrrolidine-2-carboxylic acid (2-fluoro-5-methyl-phenyl)-amide]
18 nM | 235 nM |  |  | COc1ccc(S(=O)(=O)N2CCC[C@H]2C(=O)Nc2ccc(Cl)c(C)c2)cc1 [Example 39, (S)-1-(4-Methoxy-benzenesulfonyl)-pyrrolidine-2-carboxylic acid (4-chloro-3-methyl-phenyl)-amide]
58 nM | 130 nM |  |  | COc1ccc(S(=O)(=O)N2CCC[C@H]2C(=O)Nc2ccc(Cl)c(Cl)c2)cc1 [Example 40, (S)-1-(4-Methoxy-benzenesulfonyl)-pyrrolidine-2-carboxylic acid (3,4-dichloro-phenyl)-amide]
 |  | 49 nM | 79 nM | Cc1cc(C)cc(NC(=O)[C@@H]2CCCN2S(=O)(=O)c2ccc(Br)cc2)c1 [Example 41, (S)-1-(4-Bromo-benzenesulfonyl)-pyrrolidine-2-carboxylic acid (3,5-dimethyl-phenyl)-amide]
 |  | 26 nM | 216 nM | Cc1cc(C)cc(NC(=O)[C@@H]2CCCN2S(=O)(=O)c2cccc3ccccc23)c1 [Example 42, (S)-1-(Naphthalene-1-sulfonyl)-pyrrolidine-2-carboxylic acid (3,5-dimethyl-phenyl)-amide]
 |  | 25 nM | 73 nM | Cc1cc(C)cc(NC(=O)[C@@H]2CCCN2S(=O)(=O)c2ccc3ccccc3c2)c1 [Example 43, (S)-1-(Naphthalene-2-sulfonyl)-pyrrolidine-2-carboxylic acid (3,5-dimethyl-phenyl)-amide]
 |  | 101 nM | 109 nM | COc1ccc(S(=O)(=O)N2CCC[C@H]2C(=O)Nc2cc(C)cc(C)c2)cc1OC [Example 44, (S)-1-(3,4-Dimethoxy-benzenesulfonyl)-pyrrolidine-2-carboxylic acid (3,5-dimethyl-phenyl)-amide]
